Several values for one entry are separate records, joined by “and”; a condition that tells them apart may be missing. Equal entries are not always repeated.
Key:
Stability in plasma, rat = assay type: in vitro ADME; conditions: for half-life: 37° C., read-out: Mean T1/2 (converted)
Method: Working solutions of test compounds were prepared in PBS (pH 7.4). Propantheline was used as positive control for human, monkey, dog and mouse plasma in the assay. Mevinolin was used as positive control for rat plasma in this assay. 1 mM propantheline working solution was prepared in acetonitrile. 1 mM mevinolin working solution was prepared in DMSO. Incubation buffer of 475 μL plasma for each cell was added into the incubation plate and pre-warmed at 37° C. for 15 minutes. After the pre-incubation, 25 μL of working solution (test compounds or control compounds) was spiked to plasma. For Compound 5 and Compound 3, the final concentration of organic concentration was 0%. For Taxol, the final concentration of organic solvents was 0.25%. The assay was performed in duplicate. The reaction samples were incubated at 37° C. Aliquots of 50 μL were taken from the reaction samples at 0, 0.25, 0.5, 1, 2, 4, 6, 8 and 24 hours. The reactions were stopped by the addition of 450 μL of ice-cold quench solution (methanol with 2% FA containing internal standards). All samples were vortexed for 10 minutes, following by centrifugation at 3,220 g for 30 minutes to precipitate proteins. 100 μL of the supernatant from each well was transferred to a new plate. The supernatant was diluted with ultrapure water. Samples were analyzed by LC-MS/MS. All calculations were carried out using Microsoft Excel. Peak area ratios were determined from extracted ion chromatograms. Percent compounds remaining at each time point were calculated by the following equation: Remaining Percentaget min(%)=Peak Area Ratiot min/Peak Area Ratio0 min×100
Peak Area Ratiot min is peak area ratio of control and test compounds at t min; and
Peak Area Ratio0 min is peak area ratio of control and test compounds at zero time point.
The slope value, k, was determined by linear regression of the natural logarithm of the remaining percentage of the parent drug vs. incubation time curve.
The in vitro half-life (in vitro t1/2) was determined from the slope value: in vitro t1/2=(0.693/k)

[1] = system: NCI-H460-luc2 human intracranial cells; assay: Efficacy against brain cancer: survival in NCI-H460-luc2 intracranial model; assay type: in vivo, Female BALB/c nude mice; conditions: for Increase Life Span (%): vs vehicle group; for Median Survival Time: MST ± SEM
Method: Cell Culture: Luciferase marked NCI-H460-luc2 human intracranial cells were maintained in vitro as a monolayer culture in ATCC formulated RPMI1640 medium supplemented with 10% heat inactivated fetal bovine serum, 100 U/mL penicillin and 100 μg/mL streptomycin at 37° C. in an atmosphere of 5% CO2 in air. The tumor cells were routinely subcultured twice weekly by trypsin-EDTA treatment. The cells growing in an exponential growth phase were harvested and counted for tumor inoculation.
Tumor Inoculation and Animal Grouping: Female BALB/c nude mice were anesthetized with avertin (20 μL/g). The animals were dosed intraperitoneally with 10 mg/kg of carprofen 30 minutes post-surgery for pain relief.
The anesthetized mouse was properly positioned. The surgical area was prepped with 70% ethanol solution. Using a sterile scalpel, a sagittal incision was made over the parieto-occipital bone, approximately 1 cm long. The exposed skull surface was then cleaned using a cotton swab soaked in 0.9% saline. Prior to tumor cell injection, a sterile 25 gauge sharp needle was used to puncture the skull at 2 mm to the right of the bregma and 1 mm anterior to the coronal suture, thereby creating an opening for the injection of tumor cells. Prior to drawing cells into the syringe, the contents of the cell suspension was mixed by tapping with finger. The syringe was loaded with the desired amount of cell suspension, and extra care was taken to avoid air bubbles. The outside of syringe was then cleaned with an alcohol swab to wipe the exterior free of any adherent cells, which helped to prevent extracranial tumor establishment and growth. To ensure that the appropriate injection depth was achieved, a 3 mm length was cut off on pointed end of a P20 pipetteman tip by a scalpel. This section of the tip was fitted over the syringe to limit the injection depth, and to ensure that the tip of the syringe needle was 3 mm from the underside of the skull. The syringe was placed perpendicular to the skull, in the hole previously created. And the cell suspension was slowly injected (a 3 μL suspension contains 1×10^5 NCI-H460-luc2 cells in 20% Matrigel should be injected over a 1 minute period). Intraventricular injection of cells and subsequent spinal dissemination was prevented by appropriate angle of syringe insertion. Upon completion of injection, the needle was left in place for another minute, and then slowly withdrawn. The hole as closed with medical anastomotic glue (OB). Using forceps, the scalp was drawn together over the skull and the incision was closed with surgical suture. The mice were kept warm until completely recovered from anesthesia.
Animals were selected and randomized (based on their bioluminescence density) on day 4 after tumor implantation.
Observations: During routine monitoring, the animals were checked daily for any effects of tumor growth and treatments on normal behavior such as mobility, food and water consumption (by looking only), body weight gain/loss (body weights were measured twice weekly or daily), eye/hair matting and any other abnormal effect stated in the protocol. Death and observed clinical signs were recorded on the basis of the numbers of animals within each subset.
Bioluminescence Measurements and Endpoints: The surgically inoculated mice were weighed and intraperitoneally administered luciferin at a dose of 150 mg/kg. Ten to fifteen minutes after the luciferin injection, the animals were pre-anesthetized with the mixture gas of oxygen and isoflurane. When the animals were in a complete anesthetic state, the mice were moved into the imaging chamber for bioluminescence measurements with an IVIS (Lumina II) imaging system.
The major endpoint was to determine if the tumor bioluminescence growth can be delayed, decreased, or vanished. […] The bioluminescence of the whole animal body, including primary and metastatic tumors, was measured and recorded once per week according to protocol (bioluminescence data not shown). […]

SKOV-3-GFP cells = assay: Elimination of ascites; assay type: in vivo, mice; conditions: SKOV-3-GFP cells injected into the peritoneal cavity; Compound 3 9.6 mg/kg, Taxol 10 mg/kg
Method: Following the procedure described in Example 5, mice injected with SKOV-3-GFP cells (a cell suspension of 6×10^6/120 μL/mouse or 8×10^6/120 μL/mouse injected into the peritoneal cavity) were also studied for the formation of ascites. Mice were administered vehicle (PBS), Taxol (10 mg/kg), or Compound 3 (9.6 mg/kg).
FIG. 16 and FIG. 18 are images of mice administered vehicle following an injection of SKOV-3-GFP cells (6×10^6/120 μL/mouse or 8×10^6/120 μL/mouse, respectively). […] FIG. 17A and FIG. 17B are images of two mice administered Compound 3 (9.6 mg/kg, equimolar to 2.5 mg/kg Taxol) following an injection of SKOV GFP cells (6×10^6/120 μL/mouse).

Row | Structure (SMILES) | Percent Increase of T1/2, Compound 3 over Compound 5 (Stability in plasma, rat) [%] | half-life (Stability in plasma, rat) [min] | Increase Life Span (%) ([1]; Compound 3 9.6 mg/kg) | Median Survival Time ([1]; Compound 3 9.6 mg/kg) [days] | Increase Life Span (%) ([1]; Compound 3 19.2 mg/kg) | Median Survival Time ([1]; Compound 3 19.2 mg/kg) [days] | survivors at the end point ([1]; Compound 3 38.4 mg/kg) | Increase Life Span (%) ([1]; Compound 3 38.4 mg/kg) | Median Survival Time ([1]; Compound 3 38.4 mg/kg, 38.4 mg/kg) | formation of ascites (SKOV-3-GFP cells) | Increase Life Span (%) ([1]; Paclitaxel 10 mg/kg) | Median Survival Time ([1]; Paclitaxel 10 mg/kg)
1 | CC(=O)N[C@@H](CSSCCCC(=O)OC(C(=O)O[C@H]1C[C@@]2(O)[C@@H](OC(=O)c3ccccc3)[C@@H]3[C@]4(OC(C)=O)CO[C@@H]4C[C@H](O)[C@@]3(C)C(=O)[C@H](OC(C)=O)C(=C1C)C2(C)C)[C@@H](NC(=O)c1ccccc1)c1ccccc1)C(=O)N[C@H](CCCNC(=N)N)C(=O)N[C@H](CCCNC(=N)N)C(=O)N[C@H](CCCNC(=N)N)C(=O)N[C@H](CCCNC(=N)N)C(=O)N[C@H](CCCNC(=N)N)C(=O)N[C@H](CCCNC(=N)N)C(=O)N[C@H](CCCNC(=N)N)C(=O)N[C@H](CCCNC(=N)N)C(N)=O (stereo partly drawn) [Compound 3, Ac-L-Cysteine (paclitaxel-4-mercaptobutanoate)-D-Arginine8-NH2] | 50 | 27 | 0.00 | 14 | −28.57 | 10 ± 2 | one mouse in Compound 3 38.4 mg/kg group was still alive | 0.00 | 14 days and 14 ± 1 days | No bloody ascites were observed |  | 
2 | CC(=O)N[C@H](CSSCCCC(=O)O[C@@H](C(=O)O[C@H]1C[C@@]2(O)[C@@H](OC(=O)c3ccccc3)[C@@H]3[C@]4(OC(C)=O)CO[C@@H]4C[C@H](O)[C@@]3(C)C(=O)[C@H](OC(C)=O)C(=C1C)C2(C)C)[C@@H](NC(=O)c1ccccc1)c1ccccc1)C(=O)N[C@H](CCCNC(=N)N)C(=O)N[C@H](CCCNC(=N)N)C(=O)N[C@H](CCCNC(=N)N)C(=O)N[C@H](CCCNC(=N)N)C(=O)N[C@H](CCCNC(=N)N)C(=O)N[C@H](CCCNC(=N)N)C(=O)N[C@H](CCCNC(=N)N)C(=O)N[C@H](CCCNC(=N)N)C(N)=O [Compound 5, Ac-D-Cysteine (paclitaxel-4-mercaptobutanoate)-D-Arginine8-NH2] |  | 18 |  |  |  |  |  |  |  |  |  | 
3 | CC(=O)O[C@H]1C(=O)[C@@]2(C)[C@H]([C@H](OC(=O)c3ccccc3)[C@]3(O)C[C@H](OC(=O)[C@H](O)[C@@H](NC(=O)c4ccccc4)c4ccccc4)C(C)=C1C3(C)C)[C@]1(OC(C)=O)CO[C@@H]1C[C@@H]2O [Taxol, paclitaxel] |  |  |  |  |  |  |  |  |  | formation of malignant as cites | −28.57 | 10 days and 10 ± 1 days

From patent publication US12337037B2, “Taxol conjugate compounds, pharmaceutical compositions comprising the same, and methods for their use” (N1 Life, Inc, priority 2021, dated 2025)
